# Test results taken from patent US20130035321A1, “COMPOUNDS FOR THE TREATMENT OF OCULAR CANCER” (AnalytiCon Discovery GmbH, priority 2009, published 2013).
# “Also recorded” adds a separate entry of the source. Like-named read-outs stand apart in the source and are kept apart here.
# What was measured:
# [1] = system: RB355 cells; test: Cytotoxicity dose response in 384-well plates (Alamar Blue), RB355; assay type: cell-based, human; conditions: for activity toward RB355 cells below 100 μM: upper limit 100 μM
# Description: (§1) Dose response studies were performed in 384-well microtiter plates (#3712, Corning Inc., Corning, N.Y.) according to the following protocol: cells were added in 45 μL medium to the screening plates using Flexdrop. After 72 h incubation was added 5 μL Alamar Blue using Flexdrop. The cells were then incubated for another 24 h, and the fluorescence intensity was read on LEADseeker™ Multimodality Imaging System as previously described. To calculate the IC50 for each compound toward each cell line, the dose response was assessed in duplicate and using 12 point doubling dilutions with 100 μM compound concentration as the upper limit. The dose response curve for each set of data was fitted separately, and the two IC50 values obtained were averaged.
# as §1, with “averaged. […] IC50 of 0.1 corresponds to <0.1 μM and IC50 of 100 corresponds to >100 μM.” for “averaged.”
# [2] = system: Y79 cells; test: Cytotoxicity dose response in 384-well plates (Alamar Blue), Y79; assay type: cell-based, human; conditions: for activity toward Y79 cells below 100 μM: upper limit 100 μM; for IC50: read-out: IC50 toward Y79 cells
# Description: as §1
# as §1, with “averaged. […] IC50 of 0.1 corresponds to <0.1 μM and IC50 of 100 corresponds to >100 μM.” for “averaged.”
# [3] = system: stage Vb retinoblastoma; assay type: in vivo, human
# [4] = system: Y79 cells; assay type: cell-based, human
# [5] = system: Y79LUC cells; test: Subcutaneous Y79LUC xenograft model of retinoblastoma; assay type: in vivo, mouse
# Description: Subcutaneous xenograft experiments were performed at the Memorial Sloan-Kettering Cancer Center Antitumor Assessment Core Facility. Y79LUC cells (10E6) embedded in matrigel (BD Biosciences, San Jose, Calif.) were injected subcutaneously in the right flank of 8-weeks old ICR/SCID male mice. Treatment started when the tumors reached approximately 250 mm^3. The mice were randomized into three groups and two mice per group were treated with either 10% DMSO (v/v) (control group), 1.5 mg/kg ouabain or 15 mg/kg ouabain. Treatment was performed by continuous subcutaneous infusion using osmotic minipumps (#1007D, Alzet, Cupertino, Calif.). Tumor size was measured externally two times a week with a caliper. Body weight of each mouse was monitored as well as other signs of toxicity throughout the treatment period. Bioluminescent imaging of the tumors was performed once a week and prior to sacrifice as follows: mice were anesthetized by isofluorane inhalation and injected with D-luciferin at 50 mg/Kg (Xenogen) intraperitoneally; photonic emission was measured with the In Vivo Imaging System (IVIS 200, Xenogen) with a collection time of 5 seconds.
# The therapeutic effect of the drug ouabain in a mouse xenograft model of retinoblastoma was also investigated. Three groups of two 8 weeks old ICR/SCID male mice bearing Y79 tumors implanted in the flank were treated with either vehicle only, 1.5 mg/kg ouabain or 15 mg/kg ouabain. Mice were continuously infused subcutaneously using an osmotic minipump delivery system. […] In comparison, tumors in the vehicle-treated control group continuously grew, necessitating to euthanize the animals at day 19.
# [6] = system: Y79, RB355, WERI-Rb-1 and C918 ocular cancer cell lines; test: Dose response (SAR) of 35 cardenolides in a panel of four ocular cancer cell lines; assay type: cell-based, human; conditions: panel Y79, RB355, WERI-Rb-1, C918
# Description: as §1
# To explore the structure activity relationship (SAR) within this chemical class a collection of 35 cardenolides and derivatives was constituted. The dose response for each compound toward the ocular cancer cell lines Y79, RB355, WERI-Rb-1 and C918 was then assessed.
# [7] = system: Y79 cells; assay type: cell-based, human; remark: listed apart in the source
# [8] = Homo sapiens, read-out: IC50 toward RB355 cells
compound,measurement,setting,value
C=C1/C(=C\C=C2/CCC[C@]3(C)[C@@H]([C@H](C)CCCC(C)(C)O)CC[C@@H]23)C[C@@H](O)C[C@@H]1O [calcitriol],activity toward RB355 cells below 100 μM,[1],neither caboplatin or calcitriol had any significant activity below 100 μM
same,activity toward Y79 cells below 100 μM,[2],did not demonstrate any significant activity toward Y79 cells below 100 μM
C[C@H]1O[C@@H](O[C@H]2[C@@H](O)C[C@H](O[C@H]3[C@@H](O)C[C@H](O[C@H]4CC[C@@]5(C)[C@H](CC[C@@H]6[C@@H]5C[C@@H](O)[C@]5(C)[C@@H](C7=CC(=O)OC7)CC[C@]65O)C4)O[C@@H]3C)O[C@@H]2C)C[C@H](O)[C@@H]1O [digoxin],exam three weeks after intraarterial infusion,[3]; in vivo,Exam remained stable
same,exam three weeks after second round of intraarterial infusion,[3]; in vivo,"decreased tumor size, fewer vitreous seeds, and resolution of the retinal detachment"
same,exam three weeks after third intraarterial dose,[3]; in vivo,measurable but modest improvement but residual active disease
same,reexamination after oral treatment,"[3]; in vivo, po",progression of disease
N.N.O=C([O-])C1(C(=O)[O-])CCC1.[Pt+2] [carboplatin],activity toward RB355 cells below 100 μM,[1],neither caboplatin or calcitriol had any significant activity below 100 μM
same,activity toward Y79 cells below 100 μM,[2],did not demonstrate any significant activity toward Y79 cells below 100 μM
N[C@@H](Cc1ccc(N(CCCl)CCCl)cc1)C(=O)O [melphalan],response to intraarterial chemotherapy,"[3]; three cycles, administered elsewhere before presentation",incomplete response; also recorded: no regression on the main tumor or vitreous seeds
N.N.[Cl][Pt][Cl] [cisplatin],maximum inhibition toward RB355 cells,[1]; at 100 μM,65%
same,activity toward Y79 cells below 100 μM,[2],did not demonstrate any significant activity toward Y79 cells below 100 μM
CC[C@]1(O)C[C@H]2CN(CCc3c([nH]c4ccccc34)[C@@](C(=O)OC)(c3cc4c(cc3OC)N(C=O)[C@H]3[C@@](O)(C(=O)OC)[C@H](OC(C)=O)[C@]5(CC)C=CCN6CC[C@]43[C@@H]65)C2)C1 [vincristine],apoptosis (activated Caspase-3) compared to baseline,[4],induced significant apoptosis
same,IC50,"[1]; Homo sapiens, read-out: IC50 toward RB355",1.6 nM
same,plateau of inhibition toward Y79 cells,[2]; plateau prevented calculation of IC50,50%
C[C@@H]1O[C@@H](O[C@H]2C[C@@H](O)[C@]3(CO)[C@H]4[C@H](O)C[C@]5(C)[C@@H](C6=CC(=O)OC6)CC[C@]5(O)[C@@H]4CC[C@]3(O)C2)[C@H](O)[C@H](O)[C@H]1O [ouabain],tumor burden compared to the control group,"[5]; 1.5 mg/kg, continuous subcutaneous infusion",seemed to reduce the tumor burden
same,tumor burden by bioluminescent imaging,"[5]; 15 mg/kg, continuous subcutaneous infusion by minipump, after 14 days of treatment",complete tumor regression
same,average tumor size,"[5]; 15 mg/kg, day 14, caliper",18 mm^3
same,"toxicity (average body weight, signs of toxicity)","[5]; 15 mg/kg, throughout treatment period",did not induce any significant toxicity; also recorded: no signs of toxicity were observed
same,apoptosis (activated Caspase-3) compared to baseline,[4],induced significant apoptosis; also recorded: induces apoptosis
same,IC50,[1]; [8],400 nM
same,activity across the panel of ocular cell lines,[6],potent activity across the entire panel of ocular cell lines tested
same,IC50,"[2]; Homo sapiens, Y79",650 nM
same,effect on Y79 cells in Yo-Pro pilot study,[7],eradicated Y79 cells
COc1ccc(C2=N[C@@H](c3ccc(Cl)cc3)[C@@H](c3ccc(Cl)cc3)N2C(=O)N2CCNC(=O)C2)c(OC(C)C)c1 [nutlin-3],IC50,[1]; read-out: IC50 toward RB355 cells,11000 nM
same,IC50,[2],78000 nM
COc1cc([C@@H]2c3cc4c(cc3[C@@H](O[C@@H]3O[C@@H]5CO[C@@H](C)O[C@H]5[C@H](O)[C@H]3O)[C@H]3COC(=O)[C@H]23)OCO4)cc(OC)c1O [etoposide],apoptosis (activated Caspase-3) compared to baseline,[4],induced significant apoptosis
same,IC50,[1]; [8],970 nM
same,IC50,"[2]; Homo sapiens, Y79",11000 nM
